Key:
A2.DR1 mice [1] = assay: Intracellular flow cytometry of splenocyte IFNγ responses after vaccination of A2.DR1 mice; format: in vivo; conditions: for IFNγ+ CD8+ T-cell response (intracellular flow cytometry): vaccination with peptide in Montanide, re-stimulation with K27M26-35 or K27 wt26-35, gated on CD45+ CD3+ CD8+ cells
From the text: (§1) Numbers of spots to MOG35-55 as negative control were subtracted. Mean+/−s.e.m. of n=4 mice per group and representative ELISpots are shown. **p<0.01. (B/C): H3.3-peptide libraries are used to assess MHC binding epitopes in silico: MHC peptide binding predictions for H3.3 K27M (red)- and K27 wt (blue)-containing 10-mer peptides to HLA-A*02:01 using NetMHC algorithm (B) and MHC peptide binding analysis for H3.3 K27M26-35 (red) or K27 wt26-35 (blue) depending on MHC-class-I haplotype (C). Peptides with logscore affinity >0.4 are defined as potential binders. […] Re-stimulation with the vehicle DMSO served as control; gated on CD45+ CD3+ CD8+ cells.
(§2) As antigen presentation and induction of an effective immune response is critically dependent on MHC haplotype, binding affinities of K27M26-35 to the most frequent class I haplotypes were analyzed. […] Thus, anti-tumor efficacy of H3.3 K27M peptide vaccination was further investigated in a syngeneic HLA-A*02 tumor model.

A2.DR1 mice [2] = assay: Flow cytometry detection of peptide-specific CD8 T-cells with HLA-A2 dextramer after vaccination of A2.DR1 mice; format: in vivo; conditions: splenocytes after vaccination in Montanide, gated on CD45+ CD3+ cells
From the text: as §1, §2

## RMSAPSTGGV (listed as Homo sapiens) [K27M26-35, peptide corresponding to amino acids 26-35 of K27M Histone H3.3]
A2.DR1 mice [1]; according to the examples
  immune response, HLA-A*02 restricted (summary statement): surprisingly strong immune response
A2.DR1 mice [1]
  IFNγ+ CD8+ T-cell response (intracellular flow cytometry): induced IFNγ^+CD8^+-driven mutation-specific cytotoxic T-cell responses
A2.DR1 mice [1]; listed as H3.3 K27M26-35
  IFNγ+ CD8+ T-cell response (intracellular flow cytometry): induces a mutation-specific CD8-driven T-cell response
A2.DR1 mice [2]
  peptide-specific CD8+ T-cells detected with HLA-A2 dextramer: could be detected directly
A2.DR1 mice [2]; listed as H3.3 K27M26-35
  peptide-specific CD8+ T-cells detected with HLA-A2 dextramer: CD8-positive T-cells are detected with HLA-A2 multimers

From US11767352B2, “Histone anti-cancer vaccines” (DEUTSCHES KREBSFORSCHUNGSZENTRUM, priority 2015, dated 2023)
